Measurements published in patent US7892769B2, “Processing of EphA4 polypeptide by γ-secretase activity” (Eisai R&D Management Co., Ltd., priority 2007, dated 2011).

What was measured:
γ-secretase [1] = target: T1, γ-secretase (Homo sapiens, UniProt P49768); assay: Analysis of EphA4 processing in EphA4-HA-transfected 293/EBNA-1 cell strain (Western blotting, anti-HA antibody); type: cell-based; conditions: 50 nM Compound E, one day; cells expressing rat EphA4 with C-terminal HA tag; vs sample untreated with Compound E; FIG. 1
T1 construct: host or cells: 293/EBNA-1 (HEK293) cells; only the substrate EphA4-HA was transfected
Description: Whether or not EphA4 is a substrate for γ-secretase was evaluated using HEK293 cells expressing EphA4 with an HA tag added to its C-terminus, in the presence of a γ-secretase inhibitor. As the γ-secretase inhibitor, (2S)-2-{[(3,5-difluorophenyl)acetyl]amino}-N-[(3S)-1-methyl-2-oxo-5-phenyl-2,3-dihydro-1H-1,4-benzodiazepin-3-yl]propanamide (hereinafter, sometimes referred to as “Compound E”) (Alexis Biochemicals) was used.
293/EBNA-1 cell strain (Invitrogen) was cultured in 10% FEB (Hyclone)/DMEM (Invitrogen) under 5% CO2 at 37° C., followed by transfection thereinto of a gene encoding rat EphA4 with an HA tag added to its C-terminus with Lipofectamine 2000 (Invitrogen). After one day culture under the same conditions, 50 nM Compound E (Alexis Biochemicals) was added to the medium. Cells were cultured for another day under the same conditions. Then, the transfected HEK293 cells were collected with PBS (Sigma) and sonicated with a sonicator (Taitec VP-5S) to disrupt cells. Then, the quantity of protein was determined with Protein Assay Kit (BioRad). […]
First, the substrate for γ-secretase is cut off its extracellular domain by other protease. […] Since reactions proceed very quickly from the first cleavage to the final degradation by proteasome, the substrate is […] when detected by Western blotting.

γ-secretase [2] = target: T2, γ-secretase (Rattus norvegicus, UniProt P97887); assay: Analysis of EphA4 processing in primary culture of rat hippocampal neurons (Western blotting, anti-EphA4 antibody); type: cell-based; conditions: Compound E final concentration 50 nM, one week; endogenous EphA4; vs sample untreated with Compound E; FIG. 2
T2 construct: endogenous in cells; host or cells: primary culture of hippocampal neurons from embryonic day 18 SD rats (Charles River)
Description: Whether or not EphA4 is a substrate for γ-secretase was evaluated using a primary culture of rat hippocampal neurons in the presence of a γ-secretase inhibitor. As the γ-secretase inhibitor, (2S)-2-{[(3,5-difluorophenyl)acetyl]amino}-N-[(3S)-1-methyl-2-oxo-5-phenyl-2,3-dihydro-1H-1,4-benzodiazepin-3-yl]propanamide (Compound E) (Alexis Biochemicals) was used.
The hippocampus was isolated from embryonic day 18 SD rats (Charles River) and subjected to culture. Specifically, embryos were removed aseptically from pregnant rats under etherization. The brain was removed from each embryo and dipped in 20% FBS (Hyclone)/HBSS (Sigma). The hippocampus was collected from the thus obtained brain under a stereomicroscope. The collected hippocampus was treated in an enzyme solution containing 0.25% trypsin (Invitrogen) and 0.5 mg/ml DNase (Sigma) at 35° C. for 10 minutes to disperse cells. This enzyme reaction was terminated by adding 20% FBS (Hyclone)/HBSS (Sigma). Then, 2 ml of HBSS (Sigma) was added to the resultant cells. The HBSS-added cell mass was re-dispersed by gentle pipetting. The resultant neuron suspension was diluted with a medium and plated in 10 cm dishes at an initial cell density of 1.5×10^6 cells/dish. […] Then, cells were collected with PBS and subjected to quantitative determination of protein. […]

Structure (SMILES): C[C@H](NC(=O)Cc1cc(F)cc(F)c1)C(=O)N[C@H]1N=C(c2ccccc2)c2ccccc2N(C)C1=O [Compound E, (2S)-2-{[(3,5-difluorophenyl)acetyl]amino}-N-[(3S)-1-methyl-2-oxo-5-phenyl-2,3-dihydro-1H-1,4-benzodiazepin-3-yl]propanamide]
- accumulation of EphA4 C-terminal fragment (CTF) band (γ-secretase [1]): a band around 50 kDa (CTF) was accumulated specifically
- accumulation of EphA4 C-terminal fragment (CTF) band (γ-secretase [2]): a band around 50 kDa (CTF) was accumulated specifically
